From paper PMC3038857, “Using Nuclear Receptor Activity to Stratify Hepatocarcinogens” (PLoS ONE, 2011)

Legend:
Rat Liver = conditions: rat chronic study, liver, neoplastic lesion; coded 6 / 0, code not explained here; ref ToxRefDB; cited from earlier work
LXRb (NR1H2) = biological target: T1, LXRb (NR1H2) (Homo sapiens, UniProt P55055); experiment: ATG_LXRb_TRANS: Factorial reporter gene assay (HepG2); assay type: cell-based; conditions: HepG2; scale not given, looks like -log10 of molar active concentration; 0 = no activity
T1 construct: expressed in transfected cells; host or cells: HepG2
T1 sequence (P55055 1-460): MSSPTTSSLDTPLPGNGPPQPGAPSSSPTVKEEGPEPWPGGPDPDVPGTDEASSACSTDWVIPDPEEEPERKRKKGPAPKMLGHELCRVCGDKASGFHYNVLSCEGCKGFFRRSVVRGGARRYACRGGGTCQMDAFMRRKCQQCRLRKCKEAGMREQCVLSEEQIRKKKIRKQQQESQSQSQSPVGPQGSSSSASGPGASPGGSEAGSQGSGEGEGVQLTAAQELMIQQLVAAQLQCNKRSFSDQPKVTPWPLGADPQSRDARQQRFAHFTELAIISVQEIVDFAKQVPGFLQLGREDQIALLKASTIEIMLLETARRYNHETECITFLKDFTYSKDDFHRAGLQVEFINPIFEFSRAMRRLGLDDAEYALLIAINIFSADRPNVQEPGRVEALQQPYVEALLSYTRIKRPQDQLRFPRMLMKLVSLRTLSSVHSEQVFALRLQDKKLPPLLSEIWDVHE
Procedure, shortened: (§1)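 HepG2 cells transfected with multiplexed reporter libraries: cis-acting binding-site reporters (CIS) and a one-hybrid nuclear-receptor trans system (TRANS). Chemicals tested at seven concentrations, starting at the maximum tolerated concentration with three-fold serial dilutions.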

[1] = biological target: T2, RXRB (retinoid X receptor, beta) (Homo sapiens, UniProt P28702); experiment: ATG_RXRb_TRANS: Factorial reporter gene assay (HepG2); assay type: cell-based; conditions: HepG2; scale not given, looks like -log10 of molar active concentration; 0 = no activity
T2 construct: expressed in transfected cells; host or cells: HepG2
T2 sequence (P28702 1-533): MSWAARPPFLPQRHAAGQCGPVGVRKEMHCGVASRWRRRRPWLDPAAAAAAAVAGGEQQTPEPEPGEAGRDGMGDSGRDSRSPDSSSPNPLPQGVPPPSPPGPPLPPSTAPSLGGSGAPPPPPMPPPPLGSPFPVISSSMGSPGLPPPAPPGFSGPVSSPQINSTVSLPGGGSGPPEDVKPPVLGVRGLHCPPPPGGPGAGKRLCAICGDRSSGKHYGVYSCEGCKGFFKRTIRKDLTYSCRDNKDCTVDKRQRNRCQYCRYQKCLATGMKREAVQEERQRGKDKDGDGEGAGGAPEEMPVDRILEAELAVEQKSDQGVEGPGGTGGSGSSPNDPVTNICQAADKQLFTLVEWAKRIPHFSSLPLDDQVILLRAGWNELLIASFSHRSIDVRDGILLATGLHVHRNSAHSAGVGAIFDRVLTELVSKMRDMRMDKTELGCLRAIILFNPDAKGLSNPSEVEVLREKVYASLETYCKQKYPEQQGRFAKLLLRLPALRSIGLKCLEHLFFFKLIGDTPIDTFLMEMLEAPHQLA
Protocol: A multiple reporter transcription unit (MRTU) library consisting of 48 transcription factor binding sites was transfected into the HepG2 human liver hepatoma cell line. In addition to the cis-acting reporter genes (CIS), a modification of the approach was used to generate a trans-system (TRANS) with a mammalian one-hybrid assay consisting of an additional 25 MRTU library reporting the activity of nuclear receptor super-family members. […] These assays were performed by Attagene Inc. (Morrisville NC) under contract to EPA.
In addition to the cis-acting reporter genes (CIS), a modification of the approach was used to generate a trans-system (TRANS) with a mammalian one-hybrid assay consisting of an additional 25 MRTU library reporting the activity of nuclear receptor super-family members. […] Chemicals were then tested in the CIS and TRANS assays at seven concentrations starting at the MTC and followed by three-fold serial dilutions. These assays were performed by Attagene Inc. (Morrisville NC) under contract to EPA. Detailed description of the methods, data and analysis methods for this dataset will be presented in a separate publication.

[2] = biological target: T3, ESR1 (estrogen receptor 1) (Homo sapiens, UniProt P03372); experiment: ATG_ERE_CIS: Factorial reporter gene assay (HepG2); assay type: cell-based; conditions: HepG2; scale not given, looks like -log10 of molar active concentration; 0 = no activity
T3 construct: expressed in transfected cells; host or cells: HepG2
T3 sequence (P03372 whole entry): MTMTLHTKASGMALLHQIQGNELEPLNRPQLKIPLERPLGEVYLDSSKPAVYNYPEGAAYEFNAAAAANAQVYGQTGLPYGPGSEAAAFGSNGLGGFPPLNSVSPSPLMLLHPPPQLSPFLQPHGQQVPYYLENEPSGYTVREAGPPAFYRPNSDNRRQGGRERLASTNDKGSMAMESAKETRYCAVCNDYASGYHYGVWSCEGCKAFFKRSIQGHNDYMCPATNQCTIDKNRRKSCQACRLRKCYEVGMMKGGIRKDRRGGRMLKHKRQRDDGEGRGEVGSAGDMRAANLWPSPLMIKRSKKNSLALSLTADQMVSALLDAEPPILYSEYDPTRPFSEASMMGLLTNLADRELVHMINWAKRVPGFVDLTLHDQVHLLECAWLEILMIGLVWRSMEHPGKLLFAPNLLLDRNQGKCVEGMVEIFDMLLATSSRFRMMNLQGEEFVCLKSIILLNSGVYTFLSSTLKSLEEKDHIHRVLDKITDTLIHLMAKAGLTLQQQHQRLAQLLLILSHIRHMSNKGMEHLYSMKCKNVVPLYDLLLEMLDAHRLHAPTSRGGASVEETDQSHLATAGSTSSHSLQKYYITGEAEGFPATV
Procedure, shortened: as §1

AR (androgen receptor) = experiment: NVS_NR_hAR: Human AR 3H-Methyltrienolone (cell-free HTS); assay type: binding; conditions: scale not given, looks like -log10 of molar active concentration, 0 = no activity
Procedure, shortened: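 Responses were normalized to same-plate solvent controls as percent of neutral control. AC50 values came from Hill-equation fits of concentration-response curves.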

PPARg (PPARG) = biological target: T4, PPARg (PPARG) (Homo sapiens, UniProt P37231); experiment: NVS_NR_hPPARg: Human PPARg Fluorescent Ligand (cell-free HTS); assay type: binding; conditions: scale not given, looks like -log10 of molar active concentration, 0 = no activity
T4 sequence (P37231 1-505): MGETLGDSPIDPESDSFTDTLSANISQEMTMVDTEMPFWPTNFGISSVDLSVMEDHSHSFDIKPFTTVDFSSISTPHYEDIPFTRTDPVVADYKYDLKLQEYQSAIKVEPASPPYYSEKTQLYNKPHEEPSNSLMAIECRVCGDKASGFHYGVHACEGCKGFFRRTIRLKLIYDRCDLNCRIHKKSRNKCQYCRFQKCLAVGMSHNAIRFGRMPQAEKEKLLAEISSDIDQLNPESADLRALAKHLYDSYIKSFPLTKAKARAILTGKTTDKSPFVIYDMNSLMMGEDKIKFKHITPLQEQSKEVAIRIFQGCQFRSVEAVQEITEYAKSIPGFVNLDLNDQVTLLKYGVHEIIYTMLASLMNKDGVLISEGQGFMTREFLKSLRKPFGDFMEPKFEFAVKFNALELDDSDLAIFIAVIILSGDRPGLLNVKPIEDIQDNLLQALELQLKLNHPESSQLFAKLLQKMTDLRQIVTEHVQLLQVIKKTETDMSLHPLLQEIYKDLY
Source text: These are a collection of biochemical assays measuring binding constants and enzyme inhibition values. Chemicals were initially screened at a single concentration in duplicate wells at a concentration of 10 [drawing 63] M for cytochrome P-450 assays and 25 [drawing 64] M for all others. […] These assays were run by Caliper Life Sciences (Hanover, MD) under contract to EPA. Short assay descriptions are available at: http://www.caliperls.com/products/contract-research/in-vitro/.
Cell-free HTS Assays: A collection of biochemical assays measuring binding constants and enzyme inhibition values. […] These assays were run by Caliper Life Sciences (Hanover, MD) under contract to EPA. Short assay descriptions are available at http://www.caliperls.com/products/contract-research/in-vitro/. Values for all endpoints were imported into GeneData Screener (Basel, Switzerland) and normalised to solvent controls from the same plate as the tested compounds and expressed as percent of neutral control. Concentration-response curves were fit in GeneData Screener (Basel, Switzerland) Condeseo module using the Hill equation and AC50 values were determined. […] Detailed description of the methods, data and analysis methods for this dataset are described in a separate publication.

SMILES: CC1=C(C(=O)Nc2ccccc2)SCCO1 [r53]
- CHR_Rat_Liver_3_NeoplasticLesion (Rat Liver): 0
- ATG_LXRb_TRANS (LXRb (NR1H2)): 0
- ATG_RXRb_TRANS [1]: 0
- ATG_ERE_CIS [2]: 0
- NVS_NR_hAR (AR (androgen receptor)): 0
- NVS_NR_hPPARg (PPARg (PPARG)): 0

SMILES: CCOC(=O)C(Cl)Cc1cc(-n2nc(C)n(C(F)F)c2=O)c(F)cc1Cl (stereo not drawn) [r54]
- CHR_Rat_Liver_3_NeoplasticLesion (Rat Liver): 0
- ATG_LXRb_TRANS (LXRb (NR1H2)): 0
- ATG_RXRb_TRANS [1]: 0
- ATG_ERE_CIS [2]: 0
- NVS_NR_hAR (AR (androgen receptor)): 0
- NVS_NR_hPPARg (PPARg (PPARG)): 0

SMILES: Nc1cnn(-c2ccccc2)c(=O)c1Cl [r56]
- CHR_Rat_Liver_3_NeoplasticLesion (Rat Liver): 0
- ATG_LXRb_TRANS (LXRb (NR1H2)): 0
- ATG_RXRb_TRANS [1]: 0
- ATG_ERE_CIS [2]: 0
- NVS_NR_hAR (AR (androgen receptor)): 0
- NVS_NR_hPPARg (PPARg (PPARG)): 0

SMILES: CC(C)OC(=O)Nc1cccc(Cl)c1 [r59]
- CHR_Rat_Liver_3_NeoplasticLesion (Rat Liver): 0
- ATG_LXRb_TRANS (LXRb (NR1H2)): 0
- ATG_RXRb_TRANS [1]: 0
- ATG_ERE_CIS [2]: 0
- NVS_NR_hAR (AR (androgen receptor)): 4.936
- NVS_NR_hPPARg (PPARg (PPARG)): 0

SMILES: COc1nc(C)nc(NC(=O)NS(=O)(=O)c2ccccc2Cl)n1 [r62]
- CHR_Rat_Liver_3_NeoplasticLesion (Rat Liver): 0
- ATG_LXRb_TRANS (LXRb (NR1H2)): 0
- ATG_RXRb_TRANS [1]: 0
- ATG_ERE_CIS [2]: 0
- NVS_NR_hAR (AR (androgen receptor)): 0
- NVS_NR_hPPARg (PPARg (PPARG)): 0

SMILES: COc1nc(C)nc(NC(=O)NS(=O)(=O)c2ccccc2Cl)n1 [r63]
- CHR_Rat_Liver_3_NeoplasticLesion (Rat Liver): 0
- ATG_LXRb_TRANS (LXRb (NR1H2)): 0
- ATG_RXRb_TRANS [1]: 0
- ATG_ERE_CIS [2]: 0
- NVS_NR_hAR (AR (androgen receptor)): 0
- NVS_NR_hPPARg (PPARg (PPARG)): 0
